One test has as its system HEK-293 cells. Briefly: HEK-293 cytotoxicity detection (CellTiter-Glo). In kind it is cell-based. The note with it: Homo sapiens, 72 h, 72 h incubation, CellTiter-Glo luminescence, read-out: HEK293. An outline of the steps: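 HEK-293 cells exposed 72 h to 8 compounds doses (4-fold dilutions, top stock 5 mM at 500×) in 0.2% DMSO. Viability by CellTiter-Glo luminescence; inhibition normalised to DMSO high control and low control, IC50 from four-parameter curve fit.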
For orientation: In ATP-based viability assays light output follows the ATP content of the culture.

The target of the next test is BTK (Homo sapiens, UniProt Q06187). Briefly: BTK cell degradation in TMD-8 cells, HTRF assay. In kind it is cell-based. The arrangement: endogenous in cells; host or cells: TMD-8 cells. The note with it: 6 h treatment, IC50 (DC50) of BTK degradation. In outline: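 BTK levels read by HTRF in lysates of TMD-8 cells exposed to compounds for 6 h, eight concentrations at 6-fold steps in 0.2% DMSO. Percent degradation versus DMSO and low controls was fitted with a four-parameter equation to give DC50; Dmax is maximal degradation.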
Chain of BTK (Q06187 whole entry): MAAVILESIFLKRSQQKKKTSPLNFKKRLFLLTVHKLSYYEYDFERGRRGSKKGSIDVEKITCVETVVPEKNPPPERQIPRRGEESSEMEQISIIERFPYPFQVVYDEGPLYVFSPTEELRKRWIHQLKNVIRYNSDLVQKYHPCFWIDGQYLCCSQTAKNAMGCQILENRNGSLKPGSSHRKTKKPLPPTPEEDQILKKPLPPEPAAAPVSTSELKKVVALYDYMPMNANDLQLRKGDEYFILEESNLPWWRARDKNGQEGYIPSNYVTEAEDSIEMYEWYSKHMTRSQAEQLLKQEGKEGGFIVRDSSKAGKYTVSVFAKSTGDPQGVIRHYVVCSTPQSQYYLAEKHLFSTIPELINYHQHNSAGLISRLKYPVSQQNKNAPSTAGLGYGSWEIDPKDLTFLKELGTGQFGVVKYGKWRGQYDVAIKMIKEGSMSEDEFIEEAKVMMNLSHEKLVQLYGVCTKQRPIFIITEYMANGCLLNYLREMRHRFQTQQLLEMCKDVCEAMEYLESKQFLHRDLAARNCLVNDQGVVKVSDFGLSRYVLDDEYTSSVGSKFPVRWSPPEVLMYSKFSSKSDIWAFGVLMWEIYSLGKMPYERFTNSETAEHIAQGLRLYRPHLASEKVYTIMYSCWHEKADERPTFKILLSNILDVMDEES

In the case of `COc1cnccc1C(=O)NCc1ccc(-c2nn3c(c2C(N)=O)Nc2ccc(N4CCN(CC5CCN(c6ccc(N7CCC(=O)NC7=O)cc6)CC5)CC4)cc2CC3)cc1C` [Example C37, 7-(4-((1-(4-(2,4-dioxotetrahydropyrimidin-1(2H)-yl)phenyl)piperidin-4-yl)methyl)piperazin-1-yl)-2-(4-((3-methoxyisonicotinamide)methyl)-3-methylphenyl)-9,10-dihydro-4H-benzo[d]pyrazolo[1,5-a][1,3]diazepine-3-carboxamide], the IC50 in the test with HEK-293 cells is greater than 10000 nM. At BTK, this compound returned a DC50 of 12.4 nM.
For `COc1cccc(C)c1C(=O)NCc1ccc(-c2nn3c(c2C(N)=O)Nc2ccc(N4CCN(CC5CCN(c6ccc(N7CCC(=O)NC7=O)cc6)CC5)CC4)cc2CC3)cc1C` [Example C38, 7-(4-((1-(4-(2,4-dioxotetrahydropyrimidin-1(2H)-yl)phenyl)piperidin-4-yl)methyl)piperazin-1-yl)-2-(4-((2-methoxy-6-methylbenzamido)methyl)-3-methylphenyl)-9,10-dihydro-4H-benzo[d]pyrazolo[1,5-a][1,3]diazepine-3-carboxamide], in that order: greater than 10000 nM and 7.96 nM.
As to `COc1ccc(C)cc1C(=O)NCc1ccc(-c2nn3c(c2C(N)=O)Nc2ccc(N4CCN(CC5CCN(c6ccc(N7CCC(=O)NC7=O)cc6)CC5)CC4)cc2CC3)cc1C` [Example C39, 7-(4-((1-(4-(2,4-dioxotetrahydropyrimidin-1(2H)-yl)phenyl)piperidin-4-yl)methyl)piperazin-1-yl)-2-(4-((2-methoxy-5-methylbenzamido)methyl)-3-methylphenyl)-9,10-dihydro-4H-benzo[d]pyrazolo[1,5-a][1,3]diazepine-3-carboxamide], the IC50 in the test on HEK-293 cells is greater than 10000 nM. The same compound registered a DC50 at BTK of 8.52 nM.
As for `COc1c(F)cccc1C(=O)NCc1ccc(-c2nn3c(c2C(N)=O)Nc2ccc(N4CCN(CC5CCN(c6ccc(N7CCC(=O)NC7=O)cc6)CC5)CC4)cc2CC3)cc1C` [Example C40, 7-(4-((1-(4-(2,4-dioxotetrahydropyrimidin-1(2H)-yl)phenyl)piperidin-4-yl)methyl)piperazin-1-yl)-2-(4-((3-fluoro-2-methoxybenzamido)methyl)-3-methylphenyl)-9,10-dihydro-4H-benzo[d]pyrazolo[1,5-a][1,3]diazepine-3-carboxamide], the IC50 with HEK-293 cells is greater than 10000 nM. Moreover, on BTK, the 50% degradation concentration (DC50) was found to be 10.5 nM.
In the case of `COc1cc(F)ccc1C(=O)NCc1ccc(-c2nn3c(c2C(N)=O)Nc2ccc(N4CCN(CC5CCN(c6ccc(N7CCC(=O)NC7=O)cc6)CC5)CC4)cc2CC3)cc1C` [Example C41, 7-(4-((1-(4-(2,4-dioxotetrahydropyrimidin-1(2H)-yl)phenyl)piperidin-4-yl)methyl)piperazin-1-yl)-2-(4-((4-fluoro-2-methoxybenzamido)methyl)-3-methylphenyl)-9,10-dihydro-4H-benzo[d]pyrazolo[1,5-a][1,3]diazepine-3-carboxamide], the IC50 in the test with HEK-293 cells was greater than 10000 nM. At BTK, the DC50 amounted to 9.74 nM.
For the compound `COc1ccc(F)cc1C(=O)NCc1ccc(-c2nn3c(c2C(N)=O)Nc2ccc(N4CCN(CC5CCN(c6ccc(N7CCC(=O)NC7=O)cc6)CC5)CC4)cc2CC3)cc1C` [Example C42, 7-(4-((1-(4-(2,4-dioxotetrahydropyrimidin-1(2H)-yl)phenyl)piperidin-4-yl)methyl)piperazin-1-yl)-2-(4-((5-fluoro-2-methoxybenzamido)methyl)-3-methylphenyl)-9,10-dihydro-4H-benzo[d]pyrazolo[1,5-a][1,3]diazepine-3-carboxamide], the IC50 in the test on HEK-293 cells was greater than 10000 nM. Further, the DC50 at BTK is 5.36 nM.
As for `COc1c(F)c(F)c(F)c(F)c1C(=O)NCc1ccc(-c2nn3c(c2C(N)=O)Nc2ccc(N4CCN(CC5CCN(c6ccc(N7CCC(=O)NC7=O)cc6)CC5)CC4)cc2CC3)cc1C` [Example C43, 7-(4-((1-(4-(2,4-dioxotetrahydropyrimidin-1(2H)-yl)phenyl)piperidin-4-yl)methyl)piperazin-1-yl)-2-(3-methyl-4-((2,3,4,5-tetrafluoro-6-methoxybenzamido)methyl)phenyl)-9,10-dihydro-4H-benzo[d]pyrazolo[1,5-a][1,3]diazepine-3-carboxamide], the IC50 in the test on HEK-293 cells came out at 979 nM. Moreover, half-maximal degradation on BTK (DC50) was put at 29.4 nM.
In the same order, the values of `COc1ccccc1C(=O)NCc1ccc(-c2nn3c(c2C(N)=O)Nc2ccc(N4CCN(CC5CCN(c6ccc(N7CCC(=O)NC7=O)cc6)CC5)CC4)cc2CC3)c(OC)c1` [Example C44, 7-(4-((1-(4-(2,4-dioxotetrahydropyrimidin-1(2H)-yl)phenyl)piperidin-4-yl)methyl)piperazin-1-yl)-2-(2-methoxy-4-((2-methoxybenzamido)methyl)phenyl)-9,10-dihydro-4H-benzo[d]pyrazolo[1,5-a][1,3]diazepine-3-carboxamide] are 642 nM and 3.8 nM.
For `COc1ccccc1C(=O)NCc1ccc(-c2nn3c(c2C(N)=O)Nc2ccc(N4CCN(CC5CCN(c6ccc(N7CCC(=O)NC7=O)cc6)CC5)CC4)cc2CC3)cc1C(F)(F)F` [Example C45, 7-(4-((1-(4-(2,4-dioxotetrahydropyrimidin-1(2H)-yl)phenyl)piperidin-4-yl)methyl)piperazin-1-yl)-2-(4-((2-methoxybenzamido)methyl)-3-(trifluoromethyl)phenyl)-9,10-dihydro-4H-benzo[d]pyrazolo[1,5-a][1,3]diazepine-3-carboxamide], in that order: greater than 10000 nM and 56.4 nM.
For the compound `COc1ccccc1C(=O)NCc1ccc(-c2nn3c(c2C(N)=O)Nc2ccc(N4CCN(CC5CCN(c6ccc(N7CCC(=O)NC7=O)cc6)CC5)CC4)cc2CC3)c(F)c1C` [Example C46, 7-(4-((1-(4-(2,4-dioxotetrahydropyrimidin-1(2H)-yl)phenyl)piperidin-4-yl)methyl)piperazin-1-yl)-2-(2-fluoro-4-((2-methoxybenzamido)methyl)-3-methylphenyl)-9,10-dihydro-4H-benzo[d]pyrazolo[1,5-a][1,3]diazepine-3-carboxamide], the IC50 with HEK-293 cells was greater than 10000 nM. At BTK, this compound displayed a DC50 of 4.38 nM.
As for `COc1ccccc1C(=O)NCc1ccc(-c2nn3c(c2C(N)=O)Nc2ccc(N4CCN(CC5CCN(c6ccc(N7CCC(=O)NC7=O)cc6)CC5)CC4)cc2CC3)c(F)c1F` [Example C47, 2-(2,3-difluoro-4-((2-methoxybenzamido)methyl)phenyl)-7-(4-((1-(4-(2,4-dioxotetrahydropyrimidin-1(2H)-yl)phenyl)piperidin-4-yl)methyl)piperazin-1-yl)-9,10-dihydro-4H-benzo[d]pyrazolo[1,5-a] [1,3]diazepine-3-carboxamide], the IC50 in the test on HEK-293 cells stood at 222 nM. Besides, the half-maximal degradation concentration (DC50) on BTK stood at 4.64 nM.
In the same order, the values of `COc1ccccc1C(=O)NCc1cc(F)c(-c2nn3c(c2C(N)=O)Nc2ccc(N4CCN(CC5CCN(c6ccc(N7CCC(=O)NC7=O)cc6)CC5)CC4)cc2CC3)cc1C` [Example C48, 7-(4-((1-(4-(2,4-dioxotetrahydropyrimidin-1(2H)-yl)phenyl)piperidin-4-yl)methyl)piperazin-1-yl)-2-(2-fluoro-4-((2-methoxybenzamido)methyl)-5-methylphenyl)-9,10-dihydro-4H-benzo[d]pyrazolo[1,5-a][1,3]diazepine-3-carboxamide] are greater than 10000 nM and 3.52 nM.
For `COc1c(C)cccc1C(=O)NCc1ccc(-c2nn3c(c2C(N)=O)Nc2ccc(N4CCN(CC5CCN(c6ccc(N7CCC(=O)NC7=O)cc6)CC5)CC4)cc2CC3)cc1C` [Example C49, 7-(4-((1-(4-(2,4-dioxotetrahydropyrimidin-1(2H)-yl)phenyl)piperidin-4-yl)methyl)piperazin-1-yl)-2-(4-((2-methoxy-3-methylbenzamido)methyl)-3-methylphenyl)-9,10-dihydro-4H-benzo[d]pyrazolo[1,5-a][1,3]diazepine-3-carboxamide], in that order: greater than 10000 nM and 9.8 nM.

Usually DC50 stands for the concentration at which degradation of the target reaches its halfway point. Read a high DC50 as a less potent degrader.
